The target in the test is T1, N-type calcium channel (NTCC) (Homo sapiens, UniProt Q00975).
T1 construct: host or cells: IMR32 cells differentiated with dibutyryl cAMP and bromodeoxyuridine
As to the kind of experiment: FLIPR calcium mobilization assay for N-type calcium channel (differentiated IMR32 cells). In kind it is cell-based. Particulars: about 1.0 μM or less; calcium mobilization and/or electrophysiological assay. Here is the method: Cell maintenance and differentiation. Unless noted otherwise, cell culture reagents were purchased from Mediatech of Hemdon, Md. IMR32 cells (American Type Culture Collection, ATCC, Manassas, Va.) were routinely cultured in growth medium consisting of minimum essential medium containing 10% fetal bovine serum (FBS, Hyclone, Logan, Utah), 100 U/mL penicillin, 100 μg/mL streptomycin, 2 mM L-glutamine, 1 mM sodium pyruvate, and 1× MEM non-essential amino acids. 80-90% confluent flasks of cells were differentiated using the following differentiation medium: Growth medium plus 1 mM dibutyryl cyclic AMP (Sigma, St. Louis, Mo.), and 2.5 μM bromodeoxyuridine (Sigma). Cells were differentiated for 8 days by replacing differentiation medium every 2-3 days.
FLIPR Calcium Mobilization Assay for N-type Calcium Channel. One day prior to performing this assay, differentiated IMR32 cells were treated with 1× CellStripper, and seeded on poly-D-lysine-coated 96-well clear-bottom black plates (Becton Dickinson, Franklin Lakes, N.J.) at 200,000 cells/well. On the day of the assay, the cell plates were washed with IMR32 buffer (127 mM NaCl, 1 mM KCl, 2 mM MgCl2, 700 μM NaH2PO4, 5 mM CaCl2, 5 mM NaHCO3, 8 mM HEPES, 10 mM glucose, pH 7.4), then pre-stimulated with KCl and loaded as follows: 0.05 mL of IMR32 buffer, 0.05 mL of each compound tested diluted in IMR32 buffer containing 20 μM nitrendipine (Sigma), and 0.1 mL KCl dissolved in IMR32 buffer, plus Fluo-4 were added (3 μM final concentration, Molecular Probes, Eugene, Oreg.). Final test compound concentrations ranged from about 846 pM to about 17 μM, final nitrendipine concentration was 5 μM, and final KCl concentration was 90 mM. After 1 hour, the cells were washed twice with 0.05 mL of each compound tested in nitrendipine-containing IMR32 buffer (no KCl or Fluo-4), and then replaced with 0.1 mL of each compound tested in nitrendipine-containing IMR32 buffer. Plates were then transferred to a Fluorimetric imaging Plate Reader (FLIPR^96, Molecular Devices, Inc., Sunnyvale, Calif.) for assay. The FLIPR measured basal Fluo-4 fluorescence for 315 seconds (i.e., 5 minutes and 15 seconds), then added 0.1 mL KCl agonist dissolved in IMR32 buffer and measured fluorescence for another 45 seconds. Final test compound concentrations on the cells after FLIPR read ranged from about 846 pM to about 17 μM, final nitrendipine concentration was 5 μM, and final KCl concentration was 90 mM. Data were collected over the entire time course and analyzed using Excel, Graph Pad Prism (version 3.02, Graph Pad, San Diego, Calif.), or an in-house non-linear regression analysis software.
For orientation: A change in cytosolic calcium serves as a functional read-out for many receptors and channels.

Drawing on US20090298878A1, “OXIME COMPOUNDS AND THE USE THEREOF” (priority 2006, published 2009), this text covers IC50 for 30 compounds.

Molecules are shown by their SMILES.

T1 sequence (Q00975 whole entry): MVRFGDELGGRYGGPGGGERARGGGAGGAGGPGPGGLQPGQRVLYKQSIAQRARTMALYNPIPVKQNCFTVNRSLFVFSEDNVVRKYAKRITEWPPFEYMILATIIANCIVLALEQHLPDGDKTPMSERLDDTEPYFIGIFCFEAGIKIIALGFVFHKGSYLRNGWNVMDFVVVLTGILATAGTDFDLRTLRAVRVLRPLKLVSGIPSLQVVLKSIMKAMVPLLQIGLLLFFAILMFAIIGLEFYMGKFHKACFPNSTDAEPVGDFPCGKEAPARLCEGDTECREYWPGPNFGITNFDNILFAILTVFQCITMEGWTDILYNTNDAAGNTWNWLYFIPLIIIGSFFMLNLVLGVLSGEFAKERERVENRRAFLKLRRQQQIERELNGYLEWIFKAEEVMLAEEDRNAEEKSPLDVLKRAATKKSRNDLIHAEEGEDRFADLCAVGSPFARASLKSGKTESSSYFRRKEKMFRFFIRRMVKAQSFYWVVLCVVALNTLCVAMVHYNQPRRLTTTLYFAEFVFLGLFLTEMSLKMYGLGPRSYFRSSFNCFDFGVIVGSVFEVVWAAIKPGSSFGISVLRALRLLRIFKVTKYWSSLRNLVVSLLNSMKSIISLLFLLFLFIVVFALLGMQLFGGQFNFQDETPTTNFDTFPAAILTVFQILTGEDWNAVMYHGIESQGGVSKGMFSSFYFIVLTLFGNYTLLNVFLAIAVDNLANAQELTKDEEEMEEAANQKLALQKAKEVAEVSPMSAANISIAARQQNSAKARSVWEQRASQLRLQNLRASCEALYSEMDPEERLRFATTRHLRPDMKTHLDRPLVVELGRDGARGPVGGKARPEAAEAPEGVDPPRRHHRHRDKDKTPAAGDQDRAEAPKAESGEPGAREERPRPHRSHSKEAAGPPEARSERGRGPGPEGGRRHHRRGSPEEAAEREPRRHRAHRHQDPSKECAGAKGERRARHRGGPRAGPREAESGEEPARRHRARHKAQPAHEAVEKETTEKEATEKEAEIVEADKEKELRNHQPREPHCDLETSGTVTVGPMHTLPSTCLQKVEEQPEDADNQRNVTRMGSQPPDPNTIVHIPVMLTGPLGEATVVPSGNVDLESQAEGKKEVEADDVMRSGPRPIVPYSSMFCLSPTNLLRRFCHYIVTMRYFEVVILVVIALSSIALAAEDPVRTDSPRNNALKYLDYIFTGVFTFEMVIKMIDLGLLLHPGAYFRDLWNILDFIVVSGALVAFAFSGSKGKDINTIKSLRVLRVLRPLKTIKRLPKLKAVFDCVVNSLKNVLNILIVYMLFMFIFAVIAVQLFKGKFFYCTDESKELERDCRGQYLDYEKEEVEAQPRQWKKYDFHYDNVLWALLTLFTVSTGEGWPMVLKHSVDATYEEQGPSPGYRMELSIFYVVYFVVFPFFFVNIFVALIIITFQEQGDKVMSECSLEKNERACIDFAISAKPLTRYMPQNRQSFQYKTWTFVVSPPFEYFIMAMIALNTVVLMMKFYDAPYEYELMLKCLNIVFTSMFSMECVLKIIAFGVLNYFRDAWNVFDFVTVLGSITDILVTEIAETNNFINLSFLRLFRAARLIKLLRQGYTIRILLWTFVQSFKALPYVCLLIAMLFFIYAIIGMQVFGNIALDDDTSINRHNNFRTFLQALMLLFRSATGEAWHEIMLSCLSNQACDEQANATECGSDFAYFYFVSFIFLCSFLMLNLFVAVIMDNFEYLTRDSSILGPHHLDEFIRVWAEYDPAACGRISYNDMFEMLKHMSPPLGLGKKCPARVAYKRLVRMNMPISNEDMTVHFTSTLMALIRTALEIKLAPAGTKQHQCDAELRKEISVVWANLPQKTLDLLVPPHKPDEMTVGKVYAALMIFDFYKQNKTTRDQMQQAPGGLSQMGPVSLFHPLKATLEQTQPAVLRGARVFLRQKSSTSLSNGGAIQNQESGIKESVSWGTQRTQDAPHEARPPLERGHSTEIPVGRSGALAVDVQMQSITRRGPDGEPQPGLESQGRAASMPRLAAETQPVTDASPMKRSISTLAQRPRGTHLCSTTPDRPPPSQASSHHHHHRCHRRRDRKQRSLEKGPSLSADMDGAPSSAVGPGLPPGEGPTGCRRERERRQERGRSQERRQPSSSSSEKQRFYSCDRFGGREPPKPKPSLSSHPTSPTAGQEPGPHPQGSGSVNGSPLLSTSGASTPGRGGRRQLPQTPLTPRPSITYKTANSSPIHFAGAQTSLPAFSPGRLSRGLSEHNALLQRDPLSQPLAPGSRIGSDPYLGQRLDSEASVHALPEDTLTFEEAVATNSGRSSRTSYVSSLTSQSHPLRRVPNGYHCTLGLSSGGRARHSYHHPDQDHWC

As usually defined, the IC50 is the midpoint of a concentration-inhibition curve. Consider `O=S(=O)(c1ccc(Cl)cc1Cl)N1CCC(=NOC(c2ccc(F)cc2)c2ccc(F)cc2)CC1` [Example 228, 1-(2,4-Dichlorophenylsulfonyl)piperidin-4-one O-bis(4-fluorophenyl)methyl oxime], for which the IC50 was at most 1 µM.
The result for `N#Cc1ccccc1S(=O)(=O)N1CCC(=NOC(c2ccc(F)cc2)c2ccc(F)cc2)CC1` [Example 229, 2-(4-(Bis(4-fluorophenyl)methoxyimino)piperidin-1-ylsulfonyl)benzonitrile] reads at most 1 µM; that for `CCCCc1ccc(S(=O)(=O)N2CCC(=NOC(c3ccc(F)cc3)c3ccc(F)cc3)CC2)cc1` [Example 231, 1-(4-Butylphenylsulfonyl)piperidin-4-one O-bis(4-fluorophenyl)methyl oxime], at most 1 µM; that for `O=S(=O)(c1ccc(OC(F)F)cc1)N1CCC(=NOC(c2ccc(F)cc2)c2ccc(F)cc2)CC1` [Example 232, 1-(4-(Difluoromethoxy)phenylsulfonyl)piperidin-4-one O-bis(4-fluorophenyl)methyl oxime], at most 1 µM.
On to `CN1CCOc2cc(S(=O)(=O)N3CCC(=NOC(c4ccc(F)cc4)c4ccc(F)cc4)CC3)ccc21` [Example 237, 1-(4-Methyl-3,4-dihydro-2H-benzo[b][1,4]oxazin-7-ylsulfonyl)piperidin-4-one O-bis(4-fluorophenyl)methyl oxime], for which the IC50 is at most 1 µM.
The result for `COc1ccccc1S(=O)(=O)N1CCC(=NOC(c2ccc(F)cc2)c2ccc(F)cc2)CC1` [Example 238, 1-(2-Methoxyphenylsulfonyl)piperidin-4-one O-bis(4-fluorophenyl)methyl oxime] reads at most 1 µM; that for `O=S(=O)(c1ccc(F)c(F)c1)N1CCC(=NOC(c2ccc(F)cc2)c2ccc(F)cc2)CC1` [Example 243, 1-(3,4-Difluorophenylsulfonyl)piperidin-4-one O-bis(4-fluorophenyl)methyl oxime], at most 1 µM.
The same measure for `O=S(=O)(c1cc(F)cc(F)c1)N1CCC(=NOC(c2ccc(F)cc2)c2ccc(F)cc2)CC1` [Example 244, 1-(3,5-Difluorophenylsulfonyl)piperidin-4-one O-bis(4-fluorophenyl)methyl oxime]: at most 1 µM.
The result for `O=S(=O)(c1cccc2cccnc12)N1CCC(=NOC(c2ccc(F)cc2)c2ccc(F)cc2)CC1` [Example 251, 1-(Quinolin-8-ylsulfonyl)piperidin-4-one O-bis(4-fluorophenyl)methyl oxime] reads at most 1 µM; that for `O=S(=O)(c1cccs1)N1CCC(=NOC(c2ccc(F)cc2)c2ccc(F)cc2)CC1` [Example 252, 1-(Thiophen-2-ylsulfonyl)piperidin-4-one O-bis(4-fluorophenyl)methyl oxime], at most 1 µM; that for `N#Cc1ccc(S(=O)(=O)N2CCC(=NOC(c3ccc(F)cc3)c3ccc(F)cc3)CC2)cc1` [Example 256, 4-(4-(Bis(4-fluorophenyl)methoxyimino)piperidin-1-ylsulfonyl)benzonitrile], at most 1 µM.
Take `O=S(=O)(c1ccc(OC(F)(F)F)cc1)N1CCC(=NOC[C@@H]2Cc3ccccc3N2)CC1` [Example 263, (S)-1-(4-(trifluoromethoxy)phenylsulfonyl)piperidin-4-one O-indolin-2-ylmethyl oxime]: the IC50 is at most 1 µM.
The result for `O=S(=O)(c1ccc(OC(F)(F)F)cc1)N1CCC(=NOCC2Oc3ccccc3O2)CC1` [Example 265, 1-(4-(Trifluoromethoxy)phenylsulfonyl)piperidin-4-one O-benzo[d][1,3]dioxol-2-ylmethyl oxime] reads at most 1 µM.
For `N#Cc1cccc(S(=O)(=O)N2CCC(=NOC(c3ccc(F)cc3)c3ccc(F)cc3)CC2)c1` [Example 267, 3-(4-(Bis(4-fluorophenyl)methoxyimino)piperidin-1-ylsulfonyl)benzonitrile], the concentration for half-maximal inhibition (IC50) is at most 1 µM.
On to `COc1ccc(S(=O)(=O)N2CCC(=NOC(c3ccc(F)cc3)c3ccc(F)cc3)CC2)cc1OC` [Example 268, 1-(3,4-Dimethoxyphenylsulfonyl)piperidin-4-one O-bis(4-fluorophenyl)methyl oxime], for which the IC50 was at most 1 µM.
The result for `N#Cc1cccc(C(ON=C2CCN(S(=O)(=O)c3ccc(OC(F)(F)F)cc3)CC2)c2ccncc2)c1` (stereo not drawn) [Example 269, 3-(Pyridin-4-yl(1-(4-(trifluoromethoxy)phenylsulfonyl)piperidin-4-ylideneaminooxy)methyl)benzonitrile] reads at most 1 µM.
The result for `N#Cc1cccc(C(ON=C2CCN(S(=O)(=O)c3ccc(OC(F)(F)F)cc3)CC2)c2cccnc2)c1` (stereo not drawn) [Example 270, 3-(Pyridin-3-yl(1-(4-(trifluoromethoxy)phenylsulfonyl)piperidin-4-ylideneaminooxy)methyl)benzonitrile] reads at most 1 µM; that for `N#Cc1cccc(C(ON=C2CCN(S(=O)(=O)c3ccc(OC(F)(F)F)cc3)CC2)c2ccccn2)c1` (stereo not drawn) [Example 271, 3-(Pyridin-2-yl(1-(4-(trifluoromethoxy)phenylsulfonyl)piperidin-4-ylideneaminooxy)methyl)benzonitrile], at most 1 µM; that for `COCC(ON=C1CCN(S(=O)(=O)c2ccc(OC(F)(F)F)cc2)CC1)c1cccc(C#N)c1` (stereo not drawn) [Example 273, 3-(2-Methoxy-1-(1-(4-(trifluoromethoxy)phenylsulfonyl)piperidin-4-ylideneaminooxy)ethyl)benzonitrile], at most 1 µM.
`N#Cc1cccc(C(ON=C2CCN(S(=O)(=O)c3ccc(NC4CC4)nc3)CC2)C2CC2)c1` (stereo not drawn) [Example 274, 3-(Cyclopropyl(1-(6-(cyclopropylamino)pyridin-3-ylsulfonyl)piperidin-4-ylideneaminooxy)methyl)benzonitrile]: the concentration for half-maximal inhibition (IC50) was at most 1 µM.
For the compound `N#Cc1cccc(C(ON=C2CCN(S(=O)(=O)c3ccc(NC4CCCC4)nc3)CC2)C2CC2)c1` (stereo not drawn) [Example 275, 3-((1-(6-(Cyclopentylamino)pyridin-3-ylsulfonyl)piperidin-4-ylideneaminooxy)(cyclopropyl)methyl)benzonitrile], the IC50 was at most 1 µM.
In the case of `CC(ON=C1CCN(S(=O)(=O)c2cccc(C(F)(F)F)c2)CC1)c1ccccc1` (stereo not drawn) [Example 276, 1-(3-(Trifluoromethyl)phenylsulfonyl)piperidin-4-one O-1-phenylethyl oxime], the IC50 was at most 1 µM.
The same measure for `N#Cc1cccc(C(ON=C2CCN(S(=O)(=O)c3ccc(C#N)nc3)CC2)C2CC2)c1` (stereo not drawn) [Example 278, 5-(4-((3-Cyanophenyl)(cyclopropyl)methoxyimino)piperidin-1-ylsulfonyl)picolinonitrile]: at most 1 µM.
As to `N#Cc1cccc(CON=C2CCN(S(=O)(=O)c3ccc(C(F)(F)F)cc3)CC2)c1` [Example 280, 3-((1-(4-(Trifluoromethyl)phenylsulfonyl)piperidin-4-ylideneaminooxy)methyl)benzonitrile], the IC50 was at most 1 µM.
The result for `N#Cc1cccc(CON=C2CCN(S(=O)(=O)c3ccc(OCCF)cc3)CC2)c1` [Example 281, 3-((1-(4-(2-Fluoroethoxy)phenylsulfonyl)piperidin-4-ylideneaminooxy)methyl)benzonitrile] reads at most 1 µM; that for `N#Cc1cccc(CON=C2CCN(S(=O)(=O)c3cccc(C#N)c3)CC2)c1` [Example 282, 3-(4-(3-Cyanobenzyloxyimino)piperidin-1-ylsulfonyl)benzonitrile], at most 1 µM; that for `N#Cc1cccc(S(=O)(=O)N2CCC(=NOCc3cccc(C(F)(F)F)c3)CC2)c1` [Example 284, 3-(4-(3-(Trifluoromethyl)benzyloxyimino)piperidin-1-ylsulfonyl)benzonitrile], at most 1 µM.
The result for `O=S(=O)(c1cccc(C(F)(F)F)c1)N1CCC(=NOC(c2ccc(F)cc2)c2ccc(F)cc2)CC1` [Example 285, 1-(3-(Trifluoromethyl)phenylsulfonyl)piperidin-4-one O-bis(4-fluorophenyl)methyl oxime] reads at most 1 µM; that for `COC(=O)c1cccc(S(=O)(=O)N2CCC(=NOC(c3ccc(F)cc3)c3ccc(F)cc3)CC2)c1` [Example 286, Methyl 3-(4-(bis(4-fluorophenyl)methoxyimino)piperidin-1-ylsulfonyl)benzoate], at most 1 µM.
Regarding `O=S(=O)(c1ccsc1)N1CCC(=NOC(c2ccc(F)cc2)c2ccc(F)cc2)CC1` [Example 287, 1-(Thiophen-3-ylsulfonyl)piperidin-4-one O-bis(4-fluorophenyl)methyl oxime], the IC50 is at most 1 µM.
